Values after ≈ are worked out from the molar mass of the structure shown. Starred links: 1 amine or outer side, 2 acyl side, 3 side chain; linkers in the order of their positions; H or OH if unused. Positions of bridges follow the written chain, without caps; N, C: chain ends. Non-standard residues stand in square brackets, D forms with d. Residues, ends and D or L forms follow the SMILES beside them. *: point of attachment. X1 = C[C@@H](N=[N+]=[N-])[C@H](N[*:1])C(=O)[*:2]; Octanoyl(7-Me) = CC(C)CCCCCC(=O)*; dOrn = NCCC[C@@H](N)C(=O)O; Octanoyl = CCCCCCCC(=O)*; Orn = NCCC[C@H](N)C(=O)O; Dap = NC[C@H](N)C(=O)O; Alloc = C=CCOC(=O)*
system: Escherichia coli ATCC 25922; assay type: cell-based; settings: ATCC 25922
Experimental: Minimum inhibitory concentration (MIC) was determined by broth microdilution according to CLSI guidelines. Blood agar plates were inoculated with glycerol stocks of Escherichia coli ATCC 25922, E. coli ATCC 25922 MCR-1, E. coli MCR-1 (clinical isolate from Utrecht Medical Center, NL), E. coli EQAS MCR-2 (clinical isolate from Wageningen University and Research, NL), Kiebsielia pneumoniae ATCC 11228, K. pneumoniae ATCC 13883, K. pneumonia 2048 (clinical isolate from Vrije Universiteit Amsterdam Medical Center, NL), K. pneumonia JS-123 (clinical isolate from Utrecht Medical Center, NL), Acinetobacter baumannii ATCC 17961, A. baumannil ATCC 17978, A. baumannii 2018-006 (clinical isolate from Rijksinstituut voor Volksgezondheid en Milieu, NL), A. baumannii MDR (clinical isolate from Vrije Universiteit Amsterdam Medical Center, NL), Pseudomonas aeruginosa ATCC 27853, P. aeruginosa PAO1, P. aeruginosa NRZ-03961 (Reference strain from Das Nationale Referenzzentrum für gramnegative Krankenhauserreger, DE), P. aeruginosa M-120 (clinical isolate from Leiden University Medical Center, NL) and Staphylococcus aureus USA300 (clinical isolate from Texas Children's Hospitalm, USA). E. coli 25922 MCR1 was grown on LB agar supplemented with kanamycin. The inoculated agar plates were then incubated for 16 hours at 37° C. Individually grown colonies were subsequently used to inoculate 3 mL aliquots of TSB that were then incubated at 37° C. with shaking at 220 rpm. In parallel, the compounds to be assessed were serially diluted with Mueller-Hinton broth (MHB) in polypropylene 96-well plates (50 μL in each well). Once the OD600 of the bacterial suspensions reached 0.5, the bacteria were diluted with MHB (final concentration 2×10^5 CFU mL^−1) and added to the microplates containing the test compounds (50 μL to each well, final volume: 100 μL). The well-plates were sealed with an adhesive membrane and after 16 hours of incubation at 37° C. with shaking at 220 rpm the wells were visually inspected for bacterial growth. MIC values were defined as the lowest concentration of the compound that prevented visible growth of bacteria.

Compound	Minimum inhibitory concentration (MIC) [µg/mL]
CC[C@H](C)[C@@H]1NC(=O)[C@@H](NC(=O)[C@H](Cc2c[nH]c3ccccc23)NC(=O)[C@@H](CCCN)NC(=O)CNC(=O)[C@H](CCCN)NC(=O)[C@@H](CCCN)NC(=O)[C@@H](Cc2c[nH]c3ccccc23)NC(=O)[C@@H](Cc2ccc(O)cc2)NC(=O)[C@@H](CO)NC(=O)CCCCCC(C)C)[C@@H](C)OC(=O)CNC(=O)[C@@H](CO)NC(=O)CNC1=O [Compound R4] ({Octanoyl(7-Me)}-[dS][dY][dW][dOrn][Orn]G[dOrn]WTIG[dS]G; ester 9-C; N-terminus assumed)	2 to 4
CC[C@H](C)[C@@H]1NC(=O)[C@@H](NC(=O)[C@H](Cc2c[nH]c3ccccc23)NC(=O)[C@@H](CCCN)NC(=O)CNC(=O)[C@H](CCCN)NC(=O)[C@@H](CCCN)NC(=O)[C@@H](Cc2c[nH]c3ccccc23)NC(=O)[C@@H](Cc2ccc(O)cc2)NC(=O)[C@@H](CO)NC(=O)CCCCCC(C)C)[C@@H](C)OC(=O)[C@H](C)NC(=O)[C@H](CO)NC(=O)CNC1=O [Compound R9] ({Octanoyl(7-Me)}-[dS][dY][dW][dOrn][Orn]G[dOrn]WTIGSA; ester 9-C; N-terminus assumed)	1 to 2
C=CCOC(=O)NC[C@H](NC(=O)[C@H](Cc1c[nH]c2ccccc12)NC(=O)[C@@H](CCCN)NC(=O)CNC(=O)[C@H](CCCN)NC(=O)[C@@H](CCCN)NC(=O)[C@@H](Cc1c[nH]c2ccccc12)NC(=O)[C@@H](Cc1ccc(O)cc1)NC(=O)[C@@H](CO)NC(=O)CCCCCCC)C(=O)N[C@H](C(=O)N[C@@H](CC(N)=O)C(N)=O)[C@@H](C)CC [ΔG12-G13-Dap(Alloc)9-C8] (Octanoyl-[dS][dY][dW][dOrn][Orn]G[dOrn]W[Dap](Alloc)IN-NH2)	4 (≈ 2.56 µM)
CC[C@H](C)[C@@H]1NC(=O)[C@@H](NC(=O)[C@H](Cc2c[nH]c3ccccc23)NC(=O)[C@@H](CCCN)NC(=O)CNC(=O)[C@H](CCCN)NC(=O)[C@@H](CCCN)NC(=O)[C@@H](Cc2c[nH]c3ccccc23)NC(=O)[C@@H](Cc2ccc(O)cc2)NC(=O)[C@@H](CO)NC(=O)CCCCCC(C)C)[C@@H](C)OC(=O)[C@@H](C)NC(=O)[C@H](CO)NC(=O)CNC1=O [Compound R11] ({Octanoyl(7-Me)}-[dS][dY][dW][dOrn][Orn]G[dOrn]WTIGS[dA]; ester 9-C; N-terminus assumed)	1 (≈ 0.628 µM)
CC[C@H](C)[C@H](NC(=O)[C@@H](NC(=O)[C@H](Cc1c[nH]c2ccccc12)NC(=O)[C@@H](CCCN)NC(=O)CNC(=O)[C@H](CCCN)NC(=O)[C@@H](C)NC(=O)[C@@H](Cc1c[nH]c2ccccc12)NC(=O)[C@@H](Cc1ccc(O)cc1)NC(=O)[C@@H](CO)NC(=O)CCCCCC(C)C)[C@@H](C)O)C(=O)N[C@@H](CC(N)=O)C(=O)NCC(=O)NCC(N)=O [Ala4 (D-Orn→D-Ala), FA-sywaOGoWTINGG-CONH2] ({Octanoyl(7-Me)}-[dS][dY][dW][dA][Orn]G[dOrn]WTINGG-NH2)	32 (≈ 20.3 µM)
CC[C@H](C)[C@H](NC(=O)[C@@H](NC(=O)[C@H](Cc1c[nH]c2ccccc12)NC(=O)[C@@H](CCCN)NC(=O)CNC(=O)[C@H](CCCN)NC(=O)[C@@H](CCCN)NC(=O)[C@@H](Cc1c[nH]c2ccccc12)NC(=O)[C@@H](Cc1ccc(O)cc1)NC(=O)[C@@H](CO)NC(=O)CCCCCC(C)C)[C@@H](C)N=[N+]=[N-])C(=O)N[C@@H](CC(N)=O)C(=O)NCC(=O)NCC(N)=O [MeDap(N3)9-CONH2] ({Octanoyl(7-Me)}-[dS][dY][dW][dOrn][Orn]G[dOrn]W[X1]INGG-NH2)	2 (≈ 1.21 µM)
CC[C@H](C)[C@H](NC(=O)[C@@H](NC(=O)[C@H](C)NC(=O)[C@@H](CCCN)NC(=O)CNC(=O)[C@H](CCCN)NC(=O)[C@@H](CCCN)NC(=O)[C@@H](Cc1c[nH]c2ccccc12)NC(=O)[C@@H](Cc1ccc(O)cc1)NC(=O)[C@@H](CO)NC(=O)CCCCCC(C)C)[C@@H](C)O)C(=O)N[C@@H](CC(N)=O)C(=O)NCC(=O)NCC(N)=O [Ala8 (Trp→Ala), FA-sywoOGoATINGG-CONH2] ({Octanoyl(7-Me)}-[dS][dY][dW][dOrn][Orn]G[dOrn]ATINGG-NH2)	>64
CC[C@H](C)[C@H](NC(=O)[C@H](CCC(N)=O)NC(=O)[C@H](Cc1c[nH]c2ccccc12)NC(=O)[C@@H](CCCN)NC(=O)CNC(=O)[C@H](CCCN)NC(=O)[C@@H](CCCN)NC(=O)[C@@H](Cc1c[nH]c2ccccc12)NC(=O)[C@@H](Cc1ccc(O)cc1)NC(=O)[C@@H](CO)NC(=O)CCCCCC(C)C)C(=O)N[C@@H](CC(N)=O)C(=O)NCC(=O)NCC(N)=O [Gln9-CONH2] ({Octanoyl(7-Me)}-[dS][dY][dW][dOrn][Orn]G[dOrn]WQINGG-NH2)	4 (≈ 2.43 µM)
CC(C)CCCCCC(=O)N[C@H](CO)C(=O)N[C@H](Cc1ccc(O)cc1)C(=O)N[C@H](Cc1c[nH]c2ccccc12)C(=O)N[C@H](CCCN)C(=O)N[C@@H](CCCN)C(=O)NCC(=O)N[C@H](CCCN)C(=O)N[C@@H](Cc1c[nH]c2ccccc12)C(N)=O [ΔT9-G13, FA-sywoOGoW-CONH2] ({Octanoyl(7-Me)}-[dS][dY][dW][dOrn][Orn]G[dOrn]W-NH2)	16 (≈ 13.6 µM)
CC[C@H](C)[C@H](NC(=O)[C@@H](NC(=O)[C@H](Cc1c[nH]c2ccccc12)NC(=O)[C@@H](CCCN)NC(=O)CNC(=O)[C@H](CCCN)NC(=O)[C@@H](CCCN)NC(=O)[C@@H](Cc1c[nH]c2ccccc12)NC(=O)[C@@H](Cc1ccc(O)cc1)NC(=O)[C@@H](CO)NC(=O)CCCCCC(C)C)[C@@H](C)O)C(=O)N[C@@H](C)C(=O)NCC(=O)NCC(N)=O [Ala11 (Asn→Ala), FA-sywoOGoWTIAGG-CONH2] ({Octanoyl(7-Me)}-[dS][dY][dW][dOrn][Orn]G[dOrn]WTIAGG-NH2)	16 (≈ 10.1 µM)
CC[C@H](C)[C@H](NC(=O)[C@H](CO)NC(=O)[C@H](Cc1c[nH]c2ccccc12)NC(=O)[C@@H](CCCN)NC(=O)CNC(=O)[C@H](CCCN)NC(=O)[C@@H](CCCN)NC(=O)[C@@H](Cc1c[nH]c2ccccc12)NC(=O)[C@@H](Cc1ccc(O)cc1)NC(=O)[C@@H](CO)NC(=O)CCCCCC(C)C)C(=O)N[C@@H](CC(N)=O)C(=O)NCC(=O)NCC(N)=O [Ser9-CONH2] ({Octanoyl(7-Me)}-[dS][dY][dW][dOrn][Orn]G[dOrn]WSINGG-NH2)	2 (≈ 1.24 µM)
CC[C@H](C)[C@H](NC(=O)[C@H](CC(C)C)NC(=O)[C@H](Cc1c[nH]c2ccccc12)NC(=O)[C@@H](CCCN)NC(=O)CNC(=O)[C@H](CCCN)NC(=O)[C@@H](CCCN)NC(=O)[C@@H](Cc1c[nH]c2ccccc12)NC(=O)[C@@H](Cc1ccc(O)cc1)NC(=O)[C@@H](CO)NC(=O)CCCCCC(C)C)C(=O)N[C@@H](CC(N)=O)C(=O)NCC(=O)NCC(N)=O [Leu9-CONH2] ({Octanoyl(7-Me)}-[dS][dY][dW][dOrn][Orn]G[dOrn]WLINGG-NH2)	2 to 4
CCCCCCCC(=O)N[C@H](CO)C(=O)N[C@H](Cc1ccc(O)cc1)C(=O)N[C@H](Cc1c[nH]c2ccccc12)C(=O)N[C@H](CCCN)C(=O)N[C@@H](CCCN)C(=O)NCC(=O)N[C@H](CCCN)C(=O)N[C@@H](Cc1c[nH]c2ccccc12)C(=O)N[C@@H](CO)C(=O)N[C@H](C(=O)N[C@@H](CC(N)=O)C(=O)NCC(N)=O)[C@@H](C)CC [ΔG13-Ser9-C8] (Octanoyl-[dS][dY][dW][dOrn][Orn]G[dOrn]WSING-NH2)	4 (≈ 2.6 µM)
CC[C@H](C)[C@H](NC(=O)[C@@H](NC(=O)[C@H](Cc1c[nH]c2ccccc12)NC(=O)[C@@H](CCCN)NC(=O)CNC(=O)[C@H](CCCN)NC(=O)[C@@H](CCCN)NC(=O)[C@@H](Cc1c[nH]c2ccccc12)NC(=O)[C@@H](Cc1ccc(O)cc1)NC(=O)[C@@H](CO)NC(=O)CCCCCC(C)C)[C@@H](C)O)C(=O)N[C@@H](CC(N)=O)C(=O)NCC(=O)NCC(N)=O [Thr9-CONH2] ({Octanoyl(7-Me)}-[dS][dY][dW][dOrn][Orn]G[dOrn]WTINGG-NH2)	2 to 4
CC[C@H](C)[C@@H]1NC(=O)[C@@H](NC(=O)[C@H](Cc2c[nH]c3ccccc23)NC(=O)[C@@H](CCCN)NC(=O)CNC(=O)[C@H](CCCN)NC(=O)[C@@H](CCCN)NC(=O)[C@@H](Cc2c[nH]c3ccccc23)NC(=O)[C@@H](Cc2ccc(O)cc2)NC(=O)[C@@H](CO)NC(=O)CCCCCC(C)C)[C@@H](C)OC(=O)CNC(=O)[C@H](CO)NC(=O)CNC1=O [Compound R3] ({Octanoyl(7-Me)}-[dS][dY][dW][dOrn][Orn]G[dOrn]WTIGSG; ester 9-C; N-terminus assumed)	2 to 4
CC[C@H](C)[C@H](NC(=O)[C@H](Cc1ccccc1)NC(=O)[C@H](Cc1c[nH]c2ccccc12)NC(=O)[C@@H](CCCN)NC(=O)CNC(=O)[C@H](CCCN)NC(=O)[C@@H](CCCN)NC(=O)[C@@H](Cc1c[nH]c2ccccc12)NC(=O)[C@@H](Cc1ccc(O)cc1)NC(=O)[C@@H](CO)NC(=O)CCCCCC(C)C)C(=O)N[C@@H](CC(N)=O)C(=O)NCC(=O)NCC(N)=O [Phe9-CONH2] ({Octanoyl(7-Me)}-[dS][dY][dW][dOrn][Orn]G[dOrn]WFINGG-NH2)	2 (≈ 1.2 µM)
